{"source": "patent US20250352611A1", "about": "“METHODS FOR TREATING CATARACTS USING POLYPEPTIDES” (REJUKON BIOPHARM INC., priority 2022, published 2025)", "key": {"[1]": {"target": "T1, γD-crystallin (Homo sapiens, UniProt P07320)", "T1 construct": "Wild-type human full-length γD-crystallin gene were inserted into pET14b vectors; made in house; host or cells: E. coli BL21 (DE3)", "T1 sequence (P07320 1-174)": "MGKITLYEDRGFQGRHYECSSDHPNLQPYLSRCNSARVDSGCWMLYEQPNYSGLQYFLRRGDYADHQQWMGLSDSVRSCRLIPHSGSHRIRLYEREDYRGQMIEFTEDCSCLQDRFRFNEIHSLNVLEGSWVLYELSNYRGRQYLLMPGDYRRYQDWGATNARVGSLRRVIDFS", "assay": "γD-crystallin turbidity assay (OD395 nm) at 4° C.", "assay_type": "biochemical", "details": "γD-crystallin 50 mg/ml, RJK001 0-500 uM, 5 min", "experimental": "The purified γD-crystallin was then dissolved in protein solubilization buffer to a final concentration of 50 mg/ml, Place γD-crystallin at 4° C. for 20 minutes to form a stable biphasic phase, add different concentration of the short peptide RJK001 in Sul γD-crystallin in a volume ratio of 1:1, final concentration of RJK001 from low to high is 0 uM, 20 uM, 50 uM, 100 uM, 150 uM, 200 uM, 250 uM, 300 uM and 500 uM, Use a 10 ul pipette tip to mix them well, then place them at 4° C. for 5 min, absorbance at 395 nm (OD395 nm) was monitored at 4° C. using Nanodrop ONE (Thermo Fisher Scientific, Inc.). […] The turbidity level reflects the degree of phase separation.\nFor γD-crystallin, γD-crystallin was purified in vitro, then were dissolved in protein solubilization buffer (150 mM NaCl, 50 mM tris-HCl, PH 7.5) to a final concentration of 50 mg/ml, Place γD-crystallin at 4° C. for 20 minutes to induce phase separation.\nWe followed the Turbidity Assays experiment as previously reported. Briefly, G3BP1 turbidity analysis were at room temperature and γD-crystallin protein was at 4° C. Proteins and Champ-E(RJK001), Champ-K, Champ-D or mutants are mixed at room temperature for 10 minutes prior to turbidity assays. […] Absorbance at 395 nm (OD395 nm) was monitored at room temperature using Nanodrop ONE (Thermo Fisher Scientific, Inc.)."}, "[2]": {"system": "crystallin protein aggregates from human cataract patients", "assay": "Re-dissolution of crystallin aggregates from patients with different degrees of cataract (ThT fluorescence)", "details": "LOCS II grades e.g. C1N2P0", "source_text": "DM: diabetes mellitus. lens opacity classification: C: cortex; N: nucleus; P: the posterior lens capsule.\nHuman lenses used in this study were obtained from unidentified patients undergoing extracapsular cataract surgery. The material had been classified as non-human discarded material. Preoperative clinical exam was used to classify the cataract as mixed cortical and nuclear using LOCS II four-point grading system. LOCS II four-point grading system is also commonly used in clinical settings. (Chylack LT Jr, Leske MC, McCarthy D, Khu P, Kashiwagi T, Sperduto R. Lens opacities classification system II (LOCS II). Arch Ophthalmol. 1989 July; 107(7):991-7. doi: 10.1001/archopht.1989.01070020053028. PMID: 2751471). We tested the crystallin concentrates of patients with different degrees of cataract one by one. […]"}, "[3]": {"system": "crystallin proteins of the lens from cataract patients", "assay": "Soluble crystallin in cataract lens grinding fluid by western blot (anti-βB1 crystallin)", "set-up": "species or system human", "details": "20 ul 2.5 mM RJK001 in 2 ul grinding fluid, RT 10 min", "experimental": "Quantitative analysis was performed using densitometry of crystallin proteins by western blot analysis of the supernatant or insoluble fraction of cell lysates.\nQuantitative analysis was performed using densitometry of crystallin proteins by western blot analysis of the supernatant or insoluble fraction of lens lysates. Collect one intact eye lenses from cataract patients. Put it in 2 ml Eppendorf tube containing 700 ul protein solubilization buffer, Grind the complete lens at 4° C., 30s once for 3 times with Electric grinder to obtain 1 ml grinding fluid, add 20 ul 2.5 mM RJK001 in 2 ul grinding fluid as the experimental group, add 20 ul protein dissolving solution in 2 ul grinding fluid as a control, place it at RT for 10 min, centrifuge at 13000 rpm and take the supernatant for western blotting, After blocking with 5% milk, membrane were incubated with anti-βB1 crystallin (Santacruz, sc-48335, 1:3000) overnight at 4° C., Membrane were incubated with secondary antibodies for 1 h at room temperature, then the blots were detected by the enhanced chemiluminescence.\nC-terminal fusion cell-penetrating peptide RJK001 and N-terminal fusion cell-penetrating peptide RJK012 were purified in vitro and added into SH-SY5Y cell. Cells were harvested at 1 h, 4 h, 8 h and 24 h respectively and were washed with PBS. Total proteins were extracted from SH-SY5Y cells with lysis buffer. […]"}, "[4]": {"system": "lens of cataract patients", "assay": "Immersion of intact cataract lens, opacity by daily photographs", "set-up": "species or system human", "details": "RJK001 0.5 mM in vehicle, 6 days, dark, room temperature", "experimental": "Next, we directly immersed the cataract lens removed during the operation in the buffer solution of the control group and the RJK001 protein solution of the experimental group. During the immersion for up to 6 days, the lens of the patient was photographed and recorded every day. More detailed description of the method is: Collect two intact eye lenses from cataract patients. To each tube was added 400 μL solution of vehicle (0.1% NaN3, 0.3% triton X-100, containing 1:1000 protease inhibitor cocktail) or RJK001 (0.5 mM) in vehicle which covered the lens tissue completely. Lens tissue was incubated in these solutions for 6 days in the dark at room temperature. After sealing the 48-well plate with parafilm to avoid liquid evaporation. Observe the state of the lens under the stereoscope every day and take pictures to record."}}}
{"sequence": "TEPQEESEEEVEEPEERQQTPEVVPDDSGTFYDQTVSNDLE [RJK001, polypeptide with hydrophilic and hydrophobic segment, expressed in E. coli]", "values": [{"measurement": "turbidity of γD-crystallin (OD395 nm)", "setting": "[1]", "value": "reduced the turbidity of γD-crystallin in a concentration dependent manner"}, {"measurement": "depolymerization effect on crystallin concentrates of patients with different degrees of cataract", "setting": "[2]", "value": "good depolymerization effects"}, {"measurement": "solubility of crystallin proteins of the lens (supernatant western blot)", "setting": "[3]", "value": "could improve the solubility of crystallin proteins"}, {"measurement": "opacity of the lens", "setting": "[4]", "value": "reduced opacity of the lens of cataract patients"}]}
